Source: publication PMC7385619, “A triple action CDK4/6-PI3K-BET inhibitor with augmented cancer cell cytotoxicity” (Cell Discovery, 2020)
Values joined by “and” are separate entries in the source; they are usually repeats but may differ in a detail not shown here. Equal entries are not always repeated.

Assays:
Assay in all cases: KINOMEscan assay (Eurofins DiscoverX)
Assay type in all cases: binding
kinome (kinase panel) [1] = biological target: T1, kinome (kinase panel) (Homo sapiens, UniProt O75914); conditions: PAK3; 1000 nM; read-out: Percent Control
T1 construct: purchased Eurofins DiscoverX

kinome (kinase panel) [2] = biological target: T2, kinome (kinase panel) (Homo sapiens, UniProt P00519, F317L)
T2 construct: purchased Eurofins DiscoverX

kinome (kinase panel) [3] = biological target: T3, kinome (kinase panel) (Homo sapiens, UniProt P00519, T315I)
T3 construct: purchased Eurofins DiscoverX

kinome (kinase panel) [4] = biological target: T4, kinome (kinase panel) (Homo sapiens, UniProt P00533, T790M); conditions: […]; 1000 nM; read-out: Percent Control
T4 construct: purchased Eurofins DiscoverX

kinome (kinase panel) [5] = biological target: T5, kinome (kinase panel) (Homo sapiens, UniProt P07948); conditions: LYN; 1000 nM; read-out: Percent Control
T5 construct: purchased Eurofins DiscoverX

kinome (kinase panel) [6] = biological target: T6, kinome (kinase panel) (Homo sapiens, UniProt P07949, M918T); conditions: read-out: Percent Control
T6 construct: purchased Eurofins DiscoverX

kinome (kinase panel) [7] = biological target: T7, kinome (kinase panel) (Homo sapiens, UniProt P0C1S8); conditions: WEE2; 1000 nM; read-out: Percent Control
T7 construct: purchased Eurofins DiscoverX

kinome (kinase panel) [8] = biological target: T8, kinome (kinase panel) (Homo sapiens, UniProt P0C264); conditions: SgK110; 1000 nM; read-out: Percent Control
T8 construct: purchased Eurofins DiscoverX

kinome (kinase panel) [9] = biological target: T9, kinome (kinase panel) (Homo sapiens, UniProt P17612); conditions: PKAC-alpha (Entrez PRKACA); 1000 nM; read-out: Percent Control
T9 construct: purchased Eurofins DiscoverX

kinome (kinase panel) [10] = biological target: T10, kinome (kinase panel) (Homo sapiens, UniProt P19525); conditions: PRKR (Entrez EIF2AK2); 1000 nM; read-out: Percent Control
T10 construct: purchased Eurofins DiscoverX

kinome (kinase panel) [11] = biological target: T11, kinome (kinase panel) (Homo sapiens, UniProt P37173); conditions: TGFBR2; 1000 nM; read-out: Percent Control
T11 construct: purchased Eurofins DiscoverX
T11 sequence (P37173 23-567): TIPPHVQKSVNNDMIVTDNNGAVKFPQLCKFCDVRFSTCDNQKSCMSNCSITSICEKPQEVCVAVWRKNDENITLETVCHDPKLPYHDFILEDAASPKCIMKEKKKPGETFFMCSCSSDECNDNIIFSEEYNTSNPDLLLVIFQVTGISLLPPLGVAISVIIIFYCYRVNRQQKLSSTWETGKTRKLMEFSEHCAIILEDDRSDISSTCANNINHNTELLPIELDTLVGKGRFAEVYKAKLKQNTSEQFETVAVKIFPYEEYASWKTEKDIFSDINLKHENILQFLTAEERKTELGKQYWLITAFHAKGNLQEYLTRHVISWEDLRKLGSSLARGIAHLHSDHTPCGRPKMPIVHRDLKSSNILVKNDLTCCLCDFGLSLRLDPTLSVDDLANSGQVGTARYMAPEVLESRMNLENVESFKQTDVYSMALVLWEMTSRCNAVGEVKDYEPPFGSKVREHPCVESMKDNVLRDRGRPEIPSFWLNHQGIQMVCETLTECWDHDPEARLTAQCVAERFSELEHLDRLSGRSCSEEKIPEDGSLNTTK

kinome (kinase panel) [12] = biological target: T12, kinome (kinase panel) (Homo sapiens, UniProt P42336, H1047Y); conditions: read-out: Percent Control
T12 construct: purchased Eurofins DiscoverX
T12 sequence (P42336 whole entry H1047Y): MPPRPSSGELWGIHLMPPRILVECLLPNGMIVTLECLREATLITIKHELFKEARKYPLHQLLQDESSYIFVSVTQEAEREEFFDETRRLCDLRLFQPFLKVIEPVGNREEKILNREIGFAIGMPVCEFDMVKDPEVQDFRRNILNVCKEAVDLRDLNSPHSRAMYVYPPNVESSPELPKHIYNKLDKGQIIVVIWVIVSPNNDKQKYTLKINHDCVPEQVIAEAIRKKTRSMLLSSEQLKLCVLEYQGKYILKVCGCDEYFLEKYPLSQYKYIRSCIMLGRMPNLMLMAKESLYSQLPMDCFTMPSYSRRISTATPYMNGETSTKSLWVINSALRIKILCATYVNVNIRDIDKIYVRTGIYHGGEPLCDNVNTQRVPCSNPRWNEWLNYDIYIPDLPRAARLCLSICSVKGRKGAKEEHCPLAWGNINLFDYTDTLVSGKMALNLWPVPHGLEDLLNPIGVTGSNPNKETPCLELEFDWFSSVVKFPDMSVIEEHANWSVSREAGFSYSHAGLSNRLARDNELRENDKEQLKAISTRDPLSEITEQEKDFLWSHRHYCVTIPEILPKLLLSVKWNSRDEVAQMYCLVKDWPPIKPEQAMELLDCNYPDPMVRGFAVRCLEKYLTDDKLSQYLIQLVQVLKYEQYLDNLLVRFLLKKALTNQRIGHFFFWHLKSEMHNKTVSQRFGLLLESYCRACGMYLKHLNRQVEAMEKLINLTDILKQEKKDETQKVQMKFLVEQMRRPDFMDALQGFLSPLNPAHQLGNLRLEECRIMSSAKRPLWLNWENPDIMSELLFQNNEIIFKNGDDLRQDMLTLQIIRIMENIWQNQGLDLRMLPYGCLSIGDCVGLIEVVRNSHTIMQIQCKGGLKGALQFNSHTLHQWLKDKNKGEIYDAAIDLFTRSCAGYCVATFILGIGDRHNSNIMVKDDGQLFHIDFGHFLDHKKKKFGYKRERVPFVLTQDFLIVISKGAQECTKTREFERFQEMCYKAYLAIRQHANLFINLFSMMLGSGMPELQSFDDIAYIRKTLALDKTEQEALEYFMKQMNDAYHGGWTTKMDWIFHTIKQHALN

kinome (kinase panel) [13] = biological target: T13, kinome (kinase panel) (Homo sapiens, UniProt P43403); conditions: ZAP70; 1000 nM; read-out: Percent Control
T13 construct: purchased Eurofins DiscoverX

kinome (kinase panel) [14] = biological target: T14, kinome (kinase panel) (Homo sapiens, UniProt P50613); conditions: CDK7; 1000 nM; read-out: Percent Control
T14 construct: purchased Eurofins DiscoverX

kinome (kinase panel) [15] = biological target: T15, kinome (kinase panel) (Homo sapiens, UniProt P51956); conditions: NEK3; 1000 nM; read-out: Percent Control
T15 construct: purchased Eurofins DiscoverX

kinome (kinase panel) [16] = biological target: T16, kinome (kinase panel) (Homo sapiens, UniProt P52564); conditions: MEK6 (Entrez MAP2K6); 1000 nM; read-out: Percent Control
T16 construct: purchased Eurofins DiscoverX

kinome (kinase panel) [17] = biological target: T17, kinome (kinase panel) (Homo sapiens, UniProt P53350); conditions: PLK1; 1000 nM; read-out: Percent Control
T17 construct: purchased Eurofins DiscoverX
T17 sequence (P53350 whole entry): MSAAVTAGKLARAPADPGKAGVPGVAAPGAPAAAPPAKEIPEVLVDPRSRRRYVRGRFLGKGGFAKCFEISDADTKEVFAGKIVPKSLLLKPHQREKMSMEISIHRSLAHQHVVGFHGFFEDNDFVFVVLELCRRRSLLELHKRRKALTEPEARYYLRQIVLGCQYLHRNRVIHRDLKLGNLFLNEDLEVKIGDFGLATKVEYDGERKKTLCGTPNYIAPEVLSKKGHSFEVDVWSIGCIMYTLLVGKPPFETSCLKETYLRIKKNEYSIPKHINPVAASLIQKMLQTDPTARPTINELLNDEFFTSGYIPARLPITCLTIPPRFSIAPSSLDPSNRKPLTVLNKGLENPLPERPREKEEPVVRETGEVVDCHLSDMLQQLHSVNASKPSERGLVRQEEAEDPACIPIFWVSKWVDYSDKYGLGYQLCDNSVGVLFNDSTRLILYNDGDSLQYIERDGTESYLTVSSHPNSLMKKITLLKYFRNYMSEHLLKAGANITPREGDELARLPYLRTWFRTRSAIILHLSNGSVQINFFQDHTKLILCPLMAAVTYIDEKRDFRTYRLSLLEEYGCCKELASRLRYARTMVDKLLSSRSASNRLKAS

kinome (kinase panel) [18] = biological target: T18, kinome (kinase panel) (Homo sapiens, UniProt P54762); conditions: EPHB1; 1000 nM; read-out: Percent Control
T18 construct: purchased Eurofins DiscoverX

kinome (kinase panel) [19] = biological target: T19, kinome (kinase panel) (Homo sapiens, UniProt P78356); conditions: PIP5K2B (Entrez PIP4K2B); 1000 nM; read-out: Percent Control
T19 construct: purchased Eurofins DiscoverX

kinome (kinase panel) [20] = biological target: T20, kinome (kinase panel) (Homo sapiens, UniProt Q00532); conditions: CDKL1; 1000 nM; read-out: Percent Control
T20 construct: purchased Eurofins DiscoverX

kinome (kinase panel) [21] = biological target: T21, kinome (kinase panel) (Homo sapiens, UniProt Q07002); conditions: PCTK3 (Entrez CDK18); 1000 nM; read-out: Percent Control
T21 construct: purchased Eurofins DiscoverX

kinome (kinase panel) [22] = biological target: T22, kinome (kinase panel) (Homo sapiens, UniProt Q14004); conditions: CDC2L5 (Entrez CDK13); 1000 nM; read-out: Percent Control
T22 construct: purchased Eurofins DiscoverX
T22 sequence (Q14004 whole entry): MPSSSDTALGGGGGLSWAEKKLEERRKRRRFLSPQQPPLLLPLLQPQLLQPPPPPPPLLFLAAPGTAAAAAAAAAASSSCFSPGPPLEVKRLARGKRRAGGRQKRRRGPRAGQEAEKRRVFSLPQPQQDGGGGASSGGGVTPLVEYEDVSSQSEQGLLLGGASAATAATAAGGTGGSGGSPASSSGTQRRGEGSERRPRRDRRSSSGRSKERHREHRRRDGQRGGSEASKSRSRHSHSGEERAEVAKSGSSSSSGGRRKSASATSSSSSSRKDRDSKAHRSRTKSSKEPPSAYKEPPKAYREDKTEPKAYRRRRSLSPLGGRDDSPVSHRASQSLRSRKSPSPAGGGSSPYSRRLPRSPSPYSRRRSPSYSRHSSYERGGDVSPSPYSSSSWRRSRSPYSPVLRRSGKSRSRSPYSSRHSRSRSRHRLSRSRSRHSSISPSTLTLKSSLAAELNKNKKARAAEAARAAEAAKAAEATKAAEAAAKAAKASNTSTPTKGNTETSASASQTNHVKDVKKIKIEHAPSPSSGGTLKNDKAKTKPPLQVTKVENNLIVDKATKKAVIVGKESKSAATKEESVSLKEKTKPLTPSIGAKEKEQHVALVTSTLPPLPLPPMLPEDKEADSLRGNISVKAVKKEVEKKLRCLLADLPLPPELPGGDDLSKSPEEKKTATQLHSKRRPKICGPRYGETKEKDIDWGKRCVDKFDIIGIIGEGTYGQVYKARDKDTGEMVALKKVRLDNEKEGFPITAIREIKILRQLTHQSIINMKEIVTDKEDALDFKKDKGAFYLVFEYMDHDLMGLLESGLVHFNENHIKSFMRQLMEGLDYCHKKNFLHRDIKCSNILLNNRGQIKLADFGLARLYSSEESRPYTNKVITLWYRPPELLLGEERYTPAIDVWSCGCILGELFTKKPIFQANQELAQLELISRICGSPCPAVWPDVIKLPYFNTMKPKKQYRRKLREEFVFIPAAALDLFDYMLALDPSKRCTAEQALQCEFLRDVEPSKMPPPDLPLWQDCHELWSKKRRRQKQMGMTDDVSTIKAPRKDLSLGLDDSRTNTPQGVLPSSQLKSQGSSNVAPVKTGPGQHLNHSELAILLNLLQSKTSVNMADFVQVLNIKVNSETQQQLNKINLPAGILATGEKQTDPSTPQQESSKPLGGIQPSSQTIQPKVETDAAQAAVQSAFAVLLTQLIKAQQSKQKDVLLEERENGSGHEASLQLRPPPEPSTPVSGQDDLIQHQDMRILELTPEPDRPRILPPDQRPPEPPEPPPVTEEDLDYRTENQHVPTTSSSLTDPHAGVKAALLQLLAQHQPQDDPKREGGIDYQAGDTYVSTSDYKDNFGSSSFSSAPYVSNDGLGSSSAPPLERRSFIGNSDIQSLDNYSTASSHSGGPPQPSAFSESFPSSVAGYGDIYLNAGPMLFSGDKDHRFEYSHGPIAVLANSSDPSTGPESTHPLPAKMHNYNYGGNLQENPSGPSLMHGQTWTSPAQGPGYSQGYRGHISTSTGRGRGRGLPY

kinome (kinase panel) [23] = biological target: T23, kinome (kinase panel) (Homo sapiens, UniProt Q15208); conditions: NDR1 (Entrez STK38); 1000 nM; read-out: Percent Control
T23 construct: purchased Eurofins DiscoverX

kinome (kinase panel) [24] = biological target: T24, kinome (kinase panel) (Homo sapiens, UniProt Q15746); conditions: MYLK; 1000 nM; read-out: Percent Control
T24 construct: purchased Eurofins DiscoverX

kinome (kinase panel) [25] = biological target: T25, kinome (kinase panel) (Homo sapiens, UniProt Q7L7X3); conditions: TAOK1; 1000 nM; read-out: Percent Control
T25 construct: purchased Eurofins DiscoverX
T25 sequence (Q7L7X3 whole entry): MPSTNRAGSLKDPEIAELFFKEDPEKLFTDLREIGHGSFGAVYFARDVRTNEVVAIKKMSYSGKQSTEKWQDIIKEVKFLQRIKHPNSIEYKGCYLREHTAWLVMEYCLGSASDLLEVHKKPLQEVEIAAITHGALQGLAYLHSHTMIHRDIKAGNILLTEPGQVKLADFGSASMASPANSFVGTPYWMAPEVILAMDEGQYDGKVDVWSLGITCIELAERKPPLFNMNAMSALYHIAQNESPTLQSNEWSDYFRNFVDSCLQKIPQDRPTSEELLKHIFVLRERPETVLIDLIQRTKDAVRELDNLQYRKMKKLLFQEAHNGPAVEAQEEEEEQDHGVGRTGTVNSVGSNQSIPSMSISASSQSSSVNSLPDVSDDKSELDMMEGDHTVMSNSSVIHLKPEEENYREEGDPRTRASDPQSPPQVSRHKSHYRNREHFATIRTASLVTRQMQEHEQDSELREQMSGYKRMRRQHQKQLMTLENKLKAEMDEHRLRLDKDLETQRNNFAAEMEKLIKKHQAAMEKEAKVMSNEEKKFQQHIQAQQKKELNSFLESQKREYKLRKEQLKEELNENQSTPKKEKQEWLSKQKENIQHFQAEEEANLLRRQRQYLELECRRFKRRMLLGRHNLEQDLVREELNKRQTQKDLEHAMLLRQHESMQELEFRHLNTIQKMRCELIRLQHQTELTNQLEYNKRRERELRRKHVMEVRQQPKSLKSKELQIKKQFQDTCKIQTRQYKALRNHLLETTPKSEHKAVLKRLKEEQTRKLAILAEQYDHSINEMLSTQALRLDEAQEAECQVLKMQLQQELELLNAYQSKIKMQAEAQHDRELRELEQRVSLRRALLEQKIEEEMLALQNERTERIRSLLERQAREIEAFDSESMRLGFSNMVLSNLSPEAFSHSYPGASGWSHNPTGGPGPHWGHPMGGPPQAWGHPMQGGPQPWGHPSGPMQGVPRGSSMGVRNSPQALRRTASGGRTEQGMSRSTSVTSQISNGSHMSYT

kinome (kinase panel) [26] = biological target: T26, kinome (kinase panel) (Homo sapiens, UniProt Q86V86); conditions: PIM3; 1000 nM; read-out: Percent Control
T26 construct: purchased Eurofins DiscoverX

kinome (kinase panel) [27] = biological target: T27, kinome (kinase panel) (Homo sapiens, UniProt Q8N752); conditions: CSNK1A1L; 1000 nM; read-out: Percent Control
T27 construct: purchased Eurofins DiscoverX

kinome (kinase panel) [28] = biological target: T28, kinome (kinase panel) (Homo sapiens, UniProt Q8TD08); conditions: ERK8 (Entrez MAPK15); 1000 nM; read-out: Percent Control
T28 construct: purchased Eurofins DiscoverX

kinome (kinase panel) [29] = biological target: T29, kinome (kinase panel) (Homo sapiens, UniProt Q9HBH9); conditions: MKNK2; 1000 nM; read-out: Percent Control
T29 construct: purchased Eurofins DiscoverX

kinome (kinase panel) [30] = biological target: T30, kinome (kinase panel) (Homo sapiens, UniProt Q9NRP7); conditions: STK36; 1000 nM; read-out: Percent Control
T30 construct: purchased Eurofins DiscoverX

kinome (kinase panel) [31] = biological target: T31, kinome (kinase panel) (Plasmodium falciparum, UniProt P61075); conditions: PFPK5(P.falciparum) (Entrez MAL13P1.279); 1000 nM; read-out: Percent Control
T31 construct: purchased Eurofins DiscoverX

kinome (kinase panel) [32] = conditions: for Percent Control: 1000 nM

Structure (SMILES): CN(C)C(=O)c1cc2cnc(Nc3ccc(-c4csc5c(=O)cc(N6CCOCC6)oc45)cc3)nc2n1C1CCCC1 [SRX3177]
- remaining binding at 1 µM (kinome (kinase panel) [1]): 100%
- Percent Control (kinome (kinase panel) [2]): 89 and 56
- Percent Control (kinome (kinase panel) [3]): 79
- remaining binding at 1 µM (kinome (kinase panel) [3]; read-out: Percent Control): 88%
- remaining binding at 1 µM (kinome (kinase panel) [4]): 46%
- remaining binding at 1 µM (kinome (kinase panel) [5]): 94%
- remaining binding at 1 µM (kinome (kinase panel) [6]): 100%
- remaining binding at 1 µM (kinome (kinase panel) [7]): 100%
- remaining binding at 1 µM (kinome (kinase panel) [8]): 38%
- remaining binding at 1 µM (kinome (kinase panel) [9]): 96%
- remaining binding at 1 µM (kinome (kinase panel) [10]): 97%
- remaining binding at 1 µM (kinome (kinase panel) [11]): 100%
- remaining binding at 1 µM (kinome (kinase panel) [12]): 34%
- remaining binding at 1 µM (kinome (kinase panel) [13]): 100%
- remaining binding at 1 µM (kinome (kinase panel) [14]): 90%
- remaining binding at 1 µM (kinome (kinase panel) [15]): 90%
- remaining binding at 1 µM (kinome (kinase panel) [16]): 100%
- remaining binding at 1 µM (kinome (kinase panel) [17]): 75%
- remaining binding at 1 µM (kinome (kinase panel) [18]): 100%
- remaining binding at 1 µM (kinome (kinase panel) [19]): 48%
- remaining binding at 1 µM (kinome (kinase panel) [20]): 96%
- remaining binding at 1 µM (kinome (kinase panel) [21]): 74%
- remaining binding at 1 µM (kinome (kinase panel) [22]): 4.1%
- remaining binding at 1 µM (kinome (kinase panel) [23]): 99%
- remaining binding at 1 µM (kinome (kinase panel) [24]): 5.4%
- remaining binding at 1 µM (kinome (kinase panel) [25]): 14%
- remaining binding at 1 µM (kinome (kinase panel) [26]): 78%
- remaining binding at 1 µM (kinome (kinase panel) [27]): 100%
- remaining binding at 1 µM (kinome (kinase panel) [28]): 81%
- remaining binding at 1 µM (kinome (kinase panel) [29]): 45%
- remaining binding at 1 µM (kinome (kinase panel) [30]): 92%
- remaining binding at 1 µM (kinome (kinase panel) [31]): 96%
- specificity in KINOMEscan (kinome (kinase panel) [32]): lack of off-targeting
- Percent Control (kinome (kinase panel) [32]; EGFR(L747-E749del, A750P)): 100
- Percent Control (kinome (kinase panel) [32]; EGFR(L747-S752del, P753S)): 65
- Percent Control (kinome (kinase panel) [32]; EGFR(L747-T751del,Sins)): 75
- Percent Control (kinome (kinase panel) [32]; FLT3(ITD)): 49
- Percent Control (kinome (kinase panel) [32]; FLT3(ITD,D835V)): 27
- Percent Control (kinome (kinase panel) [32]; FLT3(ITD,F691L)): 45
